Reference: PMC6099110, “Valepotriates From the Roots and Rhizomes of Valeriana jatamansi Jones as Novel N-Type Calcium Channel Antagonists” (Frontiers in Pharmacology, 2018)

Tested on: T1, Cav2.2 N-type voltage-gated calcium channel
T1 construct: gene CACNA1B
Test: two-electrode voltage clamp of Cav2.[…] expressed in Xenopus oocytes, dose-response
Format: cell-based

| Structure (SMILES) | EC50 [µM] |
| --- | --- |
| CC(=O)OCC1=CO[C@@H](OC(=O)CC(C)C)[C@H]2C1=C[C@H](OC(=O)CC(C)C)[C@]2(O)COC(=O)C(OC(=O)CC(C)C)C(C)C (stereo partly drawn) [compound 1, (1S, 7S, 8R, 9S)-11-acetoxy-10-[a-(isovaleroxy)isovaleroxy]-1,7-diisovaleroxyvaltrate hydrin] | 3.3 |
| CC(=O)OCC1=CO[C@@H](OC(=O)CC(C)(C)OC(C)=O)[C@H]2C1=C[C@H](OC(=O)CC(C)C)[C@]2(O)COC(=O)CC(C)C [compound 3, valtrate hydrin B8] | 4.8 |
